Test results taken from patent US20040253224A1, “Mammalian mucinase, its recombinant production, and its use in therapy or prophylaxis against diseases in which mucus is involved or infectious diseases” (priority 2001, published 2004).

Tests used:
[1] = system: Candida albicans strain CAi-4 spheroplasts; experiment: chitin content of cell wall of regenerating spheroplasts (Calcofluor white); type: cell-based; details: 3 μg per ml enzyme, 2 hours incubation
Description: (§1) […]. […] Chitinase enzyme preparations were added in 3 μg/ml.
In addition, the mouse acidic chitinase and chitotriosidase were both able to digest chitin in the cell wall of regenerating spheroplasts of Candida albicans. The chitin content of the cell wall was determined with the Calcofluor white stain. When regenerating cells were incubated for 2 hours with 3 μg per ml recombinant chitotriosidase or 3 μg per ml recombinant mouse acidic chitinase, the chitin content was reduced by 27% and 33%, respectively.

[2] = type: physicochemical; details: for enzyme precipitated at 0.5% (w/v) TCA: 0.5% (w/v) trichloroacetic acid
Description: Panel C: Precipitation by trichloroacetic acid (TCA). Purified recombinant human chitotriosidase and mouse AMCase were incubated with the indicated percentages of TCA. The amount of remaining enzyme activity after centrifugation is shown as a percentage of initial amounts.
(§2) The pH dependence of chitinase activity of AMCase was determined by incubating purified enzyme at a different pH (Mcllvaine buffer range 1.7-8.5) with 4-methylumbelliferyl substrates. Release of the fluorescent 4-metylumbelliferone was monitored fluorometrically (excitation […]).

[3] = chitin degradation products by FACE; type: biochemical; details: FACE analysis
Description: FIG. 2. Degradation products with colloidal chitin as substrate. The FACE technique (described in experimental procedures) was used to visualize the cleavage products of recombinant human chitotriosidase and recombinant mouse AMCase using colloidal chitin as substrate. Lane 1, no enzyme added. Lane 2, products formed after incubation with 50 kDa recombinant human chitotriosidase with chitin. Lane 3, products formed with recombinant mouse AMCase and chitin. Lane 4, human chitotriosidase incubated without substrate. Lane 5, mouse AMCase incubated without substrate. Marker lane is indicated with M (sugar polymers are indicated on the right-hand side).
as §1

[4] = pH dependence of chitinase activity (McIlvaine buffer, 4-methylumbelliferyl substrates); type: biochemical; details: McIlvaine buffer range 1.7-8.5
Description: Panel A: pH activity profile of the different chitinases. The pH optima were determined by monitoring enzyme activity at the indicated pH in Mcllvaine buffer. Purified human recombinant chitotriosidase (closed lozenge), purified mouse AMCase (closed circle).
as §2

[5] = stability on pre-incubation at acidic or basic pH; type: physicochemical; details: 30 minutes pre-incubation in McIlvaine buffer
Description: Panel B: Effects of acidic pre-incubation. Purified recombinant human chitotriosidase and mouse AMCase were pre-incubated for 30 minutes at the indicated pH in Mcllvaine buffer prior to enzyme activity measurement at the assay pH (see experimental procedures). Activity prior to incubation at the indicated pH is defined as 100%.
as §2

[6] = binding to chitin particles
Description: (§3) Chitin affinity chromatography was used to purify the enzyme. Detergent-free extracts of mouse tissues were prepared by homogenization in 10 volumes of potassium phosphate buffer pH 6.5, using an Ultra-turrax and centrifugation for 20 minutes at 15,000×g. The mouse intestine extract was adjusted to pH 5.0 by the addition of citric acid (0.2 M); NaCl was added to a final concentration of 2 M. A chitin column was prepared by mixing 10 grams swollen Sepharose G25 fine (Pharmacia, Uppsala, Sweden) with 300 mg of colloidal chitin (prepared as described by Shimahara et al. (Shimahara et al., 1988), followed by equilibration with phosphate-buffered saline (PBS) containing 2M NaCl. The extracts were applied onto the column with a flow speed of 0.4 ml/minute. After extensive washing, bound chitinase was eluted from the column with 8M urea, which was subsequently removed by dialysis. Protein concentrations were determined according to the method of Lowry et al. (Lowry et al 1951) using BSA as a standard. Fractions containing chitinase activity were subjected to SDS-PAGE and Western blotting as described (Renkema et al., 1995).

[7] = system: hyphae of Candida albicans; experiment: incubation of hyphae with recombinant AMCase; type: cell-based
[8] = system: Bovine submaxillary gland mucin; experiment: degradation of mucin, SDS-PAGE and silver staining; type: biochemical; details: 125 μg mucin, 500 ng enzyme, 0.05M NaAc pH 5.0, overnight 37° C.
Description: (§4) FIG. 7. The effect of AMCase on glycoproteins was studied by evaluating the effect of mouse AMCase on mucin, a type of glycoproteins expressed on mucosal surfaces in the airways and gastrointestinal tract. Bovine submaxillary gland mucin (Sigma) 125 μg was dissolved in 40 μl 0.05M NaAc pH 5.0 in the presence or absence of 500 ng mouse AMCase. After overnight incubation at 37° C., the mucin was electrophorized on an SDS-PAGE gel 7.5%, followed by silver staining.
as §4, with “The” for “FIG. 7. The”, “of” for “of mouse”, “glycoprotein” for “type of glycoproteins”, “(7.5% homogeneous,” for “7.5%,”, “staining). As is shown in FIG. 7, the mucin was degraded by treatment with the AMCase.” for “staining.”

[9] = resistance against proteases; type: physicochemical
[10] = system: submaxillary gland mucins; experiment: viscosity and flow rate of mucin solution in vertical glass pipette; type: biochemical
Excerpt: The mammalian mucinase, endogenously present at mucosal surfaces in mammals, provides the solution for the above-mentioned problems concerning diseases in which mucus is involved. A mucinase of the invention is capable of cleaving mucus. In one embodiment, a specific mouse (nucleotide sequence SEQ ID NO:3 (see, Table III, below) and amino acid sequence SEQ ID NO:4 (see, Table IV, below)) and human mucinase (nucleotide sequence SEQ ID NO:2 (see, Table II, above) and amino acid sequence SEQ ID NO:1 (see, Table I, above) is provided, called AMCase. It has a catalytically active 39 kDa domain which is connected via a hinge region with a C-terminal mucin-binding domain. To show its mucus-degrading property, we have incubated a mixture of submaxillary gland mucins with recombinant 50 kDa AMCase. The effect of the incubation was examined by analysis with SDS-PAGE and silver staining. […] The flow rate of the mucin solution, as measured in a vertically positioned glass pipette, was increased with almost a factor of 2.

[11] = specific activity of purified enzyme on 4MU-chitotrioside; type: biochemical; details: pH 5.2
Description: as §3
The specific activity of the purified enzyme was 3.9 nmol 4-methylumbelliferyl-chitotrioside hydrolyzed per mg per hour at pH 5.2, which is almost identical to that of human chitotriosidase.
as §1

[12] = expression of full-length cDNA in COS-1 cells, chitinolytic activity; type: biochemical; details: data not shown
Excerpt: These two sequences are most probably splice variants of the human acidic chitinase mRNA.

[13] = cited from earlier work

Compound: chitotriosidase: human phagocyte chitinase, SEQ ID NO:10, used as comparator [reference compound]
- chitin content of cell wall reduced by [1]: 27%
- enzyme precipitated at 0.5% (w/v) TCA [2]: 58%
- enzyme precipitated at 2.5% (w/v) TCA ([2]; 2.5% (w/v) trichloroacetic acid): all chitotriosidase precipitates
- cleavage products released from chitin [3]: releases mainly chitobioside fragments
- pH optimum (pronounced) [4]: only a broad pH optimum
- effect of pre-incubation at low pH on activity [5]: completely inactivated

Compound: mouse AMCase: acidic mammalian chitinase/mucinase of mouse, 50 kDa protein, amino acid sequence SEQ ID NO:4
- binding to chitin particles [6]: high affinity
- effect on hyphae (fungistatic effect) [7]: selective lysis of the growing tip
- chitin content of cell wall reduced by [1]: 33%
- enzyme remaining unprecipitated at 2.5% (w/v) TCA [2]: 26%
- enzyme precipitated at 0.5% (w/v) TCA [2]: remains in solution
- cleavage products released from chitin [3]: releases mainly chitobioside fragments
- degradation of mucin [8]: degraded substantially
- degradation of mucin ([8]; listed as recombinant 50 kDa AMCase): remarkable reduction in size of the mucins
- resistance against proteases [9]: quite resistant against various proteases
- viscosity of the mucin solution after incubation [10]: markedly reduced
- increase of flow rate of the mucin solution ([10]; vertically positioned glass pipette): ~2 factor
- specific activity of the purified enzyme [11]: 3.9 nmol 4-methylumbelliferyl-chit
- specific activity of the purified enzyme ([11]; listed as mouse acidic chitinase): 3.9 nmol 4-methylumbelliferyl-chitotrioside hydrolyzed per mg per hour
- less pronounced pH optimum [4]: 4.7 pH
- pH optimum (pronounced) [4]: 2.3 pH

Compound: human AMCase: human acidic mammalian chitinase/mucinase, amino acid sequence SEQ ID NO:1
- chitinolytic activity of expressed protein [12]: protein with chitinolytic activity

Compound: CC(=O)N[C@@H](CS)C(=O)O [N-acetylcysteine]
- mucolytic activity in vitro ([13]; in vitro): has mucolytic activity in vitro
- mucolytic activity in vivo ([13]; in vivo): has not been demonstrated convincingly in vivo
